Results from US8551984B2, “Aminopyrimidines as SYK inhibitors” (Merck Sharp & Dohme Corp., priority 2009, dated 2013).

Target: recombinant human SYK (GST-hSYK fusion protein) (Homo sapiens, UniProt P43405)
Test: biochemical
[1] = rhSYK Activity (IC50), recombinant human GST-SYK 5 pM, ATP 25 μM, biotinylated substrate peptide 250 nM, HTRF, 10-dose titration

From the text: Homogeneous Time-Resolved Fluorescence (HTRF) Assay for the Recombinant Human SYK Enzyme:

In the case of Cc1cc(Nc2nccc(C(F)(F)F)n2)cc(-c2cnc(C3(O)CCCN(C(=O)c4cnn[nH]4)CC3)s2)c1 (single isomer, unassigned) [Example 54D-36], the IC50 (rhSYK Activity, Table 54D) is reported as < 100 nM.
COc1ccnc(Nc2cc(C)cc(-c3cnc(C4(O)CCC(C(=O)O)C(C)(C)C4)s3)c2)n1 (single isomer, unassigned) [Example 33A-72] was tested, and the IC50 (rhSYK Activity, Table 33-A) was < 100 nM.
In the case of NS(=O)(=O)Cc1ncc(-c2cccc(Nc3nccc(C(F)(F)F)n3)c2)s1 [Example 75-1], the IC50 (rhSYK Activity, table after Example 75) is reported as < 100 nM.
Cc1cc(Nc2nccc(C(F)(F)F)n2)cc(-c2cnc(C3(O)CCN(C(=O)c4c[nH]nn4)CC3)s2)c1 [Example 54A-31] was tested, and the IC50 (RHSYK Activity, Table 54A) was < 100 nM.
COC(=O)[C@H]1CC[C@H](c2ncc(-c3cccc(Nc4nccc(C(F)(F)F)n4)c3)s2)CC1 [Example 21-11, methyl trans-4-[5-(3-{[4-(trifluoromethyl)pyrimidin-2-yl]amino}phenyl)-1,3-thiazol-2-yl]cyclohexanecarboxylate] was tested, and the IC50 (rhSYK Activity, Table 21) was 100 to 1000 nM.
Cc1cc(Nc2nccc(C(F)(F)F)n2)cc(-c2cnc(C3(O)CCCN(C(=O)c4ccnc(Cl)n4)CC3)s2)c1 (stereo not shown) [Example 54D-105] was tested, and the IC50 (rhSYK Activity, Table 54D) was < 100 nM.
For Cc1cc(Nc2nccc(C(F)(F)F)n2)cc(-c2cnc(C3(O)CCCN(C(=O)C4CCC(=O)O4)CC3)s2)c1 (stereo not shown) [Example 54D-66], the IC50 (rhSYK Activity, Table 54D) was < 100 nM.
For Cc1cc(Nc2nccc(C(F)(F)F)n2)cc(-c2cnc(C3(O)CCN(C(=O)CC(N)=O)C3)s2)c1 (stereo not shown) [54B-26], the IC50 (rhSYK Activity, Table 54B) was < 100 nM.
For Cc1cc(Nc2nccc(C(F)(F)F)n2)cc(-c2cnc(C3(O)CCN(S(=O)(=O)c4cn(C)cn4)CC3)s2)c1 [Example 54A-3], the IC50 (RHSYK Activity, Table 54A) was < 100 nM.
Compound Cc1cc(Nc2nccc(C(F)(F)F)n2)cc(-c2cnc(C(=O)N(C)CC3COCCO3)s2)c1 (stereo not shown) [Example 87A-23] has an IC50 [1] of 100 to 1000 nM.
Cc1cc(Nc2nccc(C(F)(F)F)n2)cc(-c2cnc(C3(O)CCN(C(=O)c4nc[nH]n4)CC3)s2)c1 [Example 54A-30] was tested, and the IC50 (RHSYK Activity, Table 54A) was < 100 nM.
With Cc1cc(Nc2nccc(OCCCOCc3ccccc3)n2)cc(-c2cnc(C3(O)CCC3)s2)c1 [Example 94A-13] the IC50 [1] was 100 to 1000 nM.
With Cc1cc(Nc2nccc(C(F)(F)F)n2)cc(-c2cnc(C3(NC(=O)NC(N)=O)COC3)s2)c1 [65-1] the IC50 (rhSYK Activity, Table 65) was < 100 nM.
With C#Cc1ccc(C(=O)N2CCC(O)(c3ncc(-c4cc(C)cc(Nc5nccc(C(F)(F)F)n5)c4)s3)CC2)cc1 [Example 54A-55] the IC50 (RHSYK Activity, Table 54A) was < 100 nM.
For CCn1cc(NCc2ncc(-c3cc(C)cc(Nc4nccc(C(F)(F)F)n4)c3)s2)nn1 [Example 88A-26], the IC50 [1] was < 100 nM.
For CC1(C)C[C@@](O)(c2ncc(-c3cc(CN)cc(Nc4nccc(C(F)(F)F)n4)c3)s2)CC[C@@H]1C(=O)O [Example 123, (1S,4R)-4-{5-[3-(aminomethyl)-5-{[4-(trifluoromethyl)pyrimidin-2-yl]amino}phenyl]-1,3-thiazol-2-yl}-4-hydroxy-2,2-dimethylcyclohexanecarboxylic acid], the IC50 [1] was < 100 nM.
Cc1cc(Nc2ncc(Cl)cn2)cc(-c2cnc(C3(O)CCC3)s2)c1 [Example 100A-5] showed an IC50 [1] of 100 to 1000 nM.
In the case of Cc1cc(Nc2nccc(OCCCCO)n2)cc(-c2cnc(C3(O)CCC3)s2)c1 [Example 108A-31], the IC50 (rhSYK Activity, Table 108A) is reported as < 100 nM.
Cc1cc(Nc2nccc(C(F)(F)F)n2)cc(-c2cnc(C3=CCC(C(=O)O)CC3)s2)c1 (stereo not shown) [Example 36A-3] was tested, and the IC50 (rhSYK Activity, Table 36A) was < 100 nM.
FC1(F)CC(c2ncc(-c3cccc(Nc4nccc(C(F)(F)F)n4)c3)s2)C1 [Example 21-9] was tested, and the IC50 (rhSYK Activity, Table 21) was 100 to 1000 nM.
Cc1cc(Nc2nccc(C(C)C)n2)cc(-c2cnc(C3(O)CCCN(C(=O)C(C)O)CC3)s2)c1 (stereo not shown) [Example 54D-4] was tested, and the IC50 (rhSYK Activity, Table 54D) was < 100 nM.
For CCOC(=O)CC(=O)N1CCC(O)(c2ncc(-c3cc(C)cc(Nc4nccc(C(F)(F)F)n4)c3)s2)CC1 [Example 54A-43], the IC50 (RHSYK Activity, Table 54A) was < 100 nM.
Cc1cc(Nc2nccc(C(C)(C)C)n2)cc(-c2cnc([C@]3(O)CC[C@@H](C(=O)O)CC3)s2)c1 [116A-6] was tested, and the IC50 (rhSYK Activity, Table 116A) was < 100 nM.
In the case of Cc1cc(Nc2nccc(C(F)(F)F)n2)cc(-c2cnc(C3(O)CCCN(C(=O)c4cc(O)ccc4F)CC3)s2)c1 (stereo not shown) [Example 54D-104], the IC50 (rhSYK Activity, Table 54D) is reported as < 100 nM.
For Cc1cc(Nc2nccc(C(F)(F)F)n2)cc(-c2cnc(C3(O)CCN(C(=O)CO)C3)s2)c1 (stereo not shown) [54B-21], the IC50 (rhSYK Activity, Table 54B) was < 100 nM.
Compound COC(=O)C1CCC(O)(c2ncc(-c3cc(C)cc(Nc4nccc(C)n4)c3)s2)CC1C (stereo not shown) [Example 113A-9] has an IC50 (rhSYK Activity, Table 113A) of 100 to 1000 nM.
In the case of COc1ccnc(Nc2cc(C)cc(-c3cnc([C@]4(O)CC[C@](C)(C(=O)O)CC4)s3)c2)n1 [Example 33A-38], the IC50 (rhSYK Activity, Table 33-A) is reported as < 100 nM.
With CC(=O)Oc1ccc(C(=O)N2CCCC(O)(c3ncc(-c4cc(C)cc(Nc5nccc(C(F)(F)F)n5)c4)s3)CC2)cc1 (stereo not shown) [Example 54D-106] the IC50 (rhSYK Activity, Table 54D) was < 100 nM.
For Cc1cc(Nc2nccc(C(F)(F)F)n2)cc(-c2cnc(C3(O)CCCN(C(=O)CC(N)=O)CC3)s2)c1 (single isomer, unassigned) [Example 54D-20], the IC50 (rhSYK Activity, Table 54D) was < 100 nM.
With Cc1cc(Nc2nccc(C(F)(F)F)n2)cc(-c2cnc(C3(O)CNC3)s2)c1 [Example 33C-13] the IC50 (rhSYK Activity, Table 33C) was < 100 nM.
In the case of Cc1cc(Nc2nccc(C(F)(F)F)n2)cc(-c2cnc(C3(NS(=O)(=O)CC(F)(F)F)COC3)s2)c1 [Example 61B-7], the IC50 (rhSYK Activity, Table 61B) is reported as < 100 nM.
Cc1cc(Nc2nc(C)cc(C)n2)cc(-c2cnc(C3(O)CCC(C(=O)O)C(C)(C)C3)s2)c1 (stereo not shown) [Example 100A-9] gave an IC50 [1] of 100 to 1000 nM.
In the case of CC(C)(O)c1cc(Nc2nccc(C(F)(F)F)n2)cc(-c2cnc(C3(O)CCC(C(=O)O)C(C)(C)C3)s2)c1 (stereo not shown) [Example 33A-48], the IC50 (rhSYK Activity, Table 33-A) is reported as < 100 nM.
With COC(=O)C1CCC(O)(c2ncc(-c3cc(C)cc(Nc4nccc(C5CC5)n4)c3)s2)CC1(C)C (stereo not shown) [Example 33A-70] the IC50 (rhSYK Activity, Table 33-A) was < 100 nM.
For Cc1cc(Nc2nccc(C(F)(F)F)n2)cc(-c2cnc(-c3ccncc3)s2)c1 [Example 114-4], the IC50 [1] was < 100 nM.
In the case of Cc1cc(Nc2nccc(C(F)(F)F)n2)cc(-c2cnc(C3(O)CCN(C(=O)c4ccc(C#N)cc4)CC3)s2)c1 [Example 54A-56], the IC50 (RHSYK Activity, Table 54A) is reported as < 100 nM.
With Cc1cc(Nc2ncc(Cl)c(C)n2)cc(-c2cnc([C@@]3(O)CC[C@H](C(=O)O)[C@H](C)C3)s2)c1 [Example 113A-27] the IC50 (rhSYK Activity, Table 113A) was < 100 nM.
For COC(=O)[C@H]1CC[C@](O)(c2ncc(-c3cc(C)cc(Nc4nccc(OC)n4)c3)s2)CC1(C)C [Example 113A-54], the IC50 (rhSYK Activity, Table 113A) was < 100 nM.
Work on Cc1cc(Nc2nccc(OC(C)(C)C(=O)O)n2)cc(-c2cnc(C3(O)CCC3)s2)c1 [Example 95, 2-{[2-({3-[2-(1-hydroxycyclobutyl)-1,3-thiazol-5-yl]-5-methylphenyl}amino)pyrimidin-4-yl]oxy}-2-methylpropanoic acid] yielded an IC50 [1] of 100 to 1000 nM.
In the case of Cc1cc(Nc2ncc(Cl)c(C)n2)cc(-c2cnc([C@]3(O)CC[C@@H](C(=O)O)[C@@H](C)C3)s2)c1 [Example 113A-28], the IC50 (rhSYK Activity, Table 113A) is reported as < 100 nM.
With Cc1cc(Nc2ncc(F)cn2)cc(-c2cnc(C3(O)CCC(C)(C(=O)O)CC3)s2)c1 (stereo not shown) [Example 33A-3] the IC50 (rhSYK Activity, Table 33-A) was < 100 nM.
With Cc1cc(Nc2nccc(C(F)(F)F)n2)cc(-c2cnc(C3(O)CCCN(C(=O)CCC(F)(F)F)CC3)s2)c1 (stereo not shown) [Example 54D-90] the IC50 (rhSYK Activity, Table 54D) was < 100 nM.
In the case of CCc1ccnc(Nc2cc(C)cc(-c3cnc(C4(O)CCC4)s3)c2)n1 [Example 56-2], the IC50 (rhSYK Activity, Table 56) is reported as < 100 nM.
With CNC(=O)Nc1cc(Nc2nccc(C(F)(F)F)n2)cc(-c2cnc(C3(O)CCC3)s2)c1 [Example 19-3] the IC50 (rhSYK Activity, table of Examples 19-x) was < 100 nM.
Cc1cc(Nc2nccc(C(F)(F)F)n2)cc(-c2cnc(C3(O)CCCN(C(=O)c4ccc(O)cc4)CC3)s2)c1 (stereo not shown) [Example 54D-84] was tested, and the IC50 (rhSYK Activity, Table 54D) was < 100 nM.
With Cc1cc(Nc2nccc(OC3CCC(N)CC3)n2)cc(-c2cnc(C3(O)CCC3)s2)c1 (stereo not shown) [Example 94A-18] the IC50 [1] was < 100 nM.
Cc1cc(Nc2nccc(C(F)(F)F)n2)cc(-c2cnc(C3(O)CCCN(C(=O)c4nn[nH]c4C(F)(F)F)CC3)s2)c1 (single isomer, unassigned) [Example 54D-107] was tested, and the IC50 (rhSYK Activity, Table 54D) was < 100 nM.
CCCNC(=O)N1CCC(O)(c2ncc(-c3cc(C)cc(Nc4nccc(C(F)(F)F)n4)c3)s2)CC1 [Example 54A-14] was tested, and the IC50 (RHSYK Activity, Table 54A) was < 100 nM.
In the case of CS(=O)(=O)C1(c2ncc(-c3cc(Nc4nccc(C(F)(F)F)n4)cc([N+](=O)[O-])c3)s2)CCC1 [Example 74B-3], the IC50 (rhSYK Activity, Table 74B) is reported as 1000 to 10000 nM.
Cc1cc(Nc2nccc(C(F)(F)F)n2)cc(-c2cnc(C3(O)CCCN(C(=O)CCC(=O)O)CC3)s2)c1 (stereo not shown) [Example 54D-43] was tested, and the IC50 (rhSYK Activity, Table 54D) was < 100 nM.
For COc1nc(Nc2cc(C)cc(-c3cnc(C4(O)CCC(C(=O)O)C(C)(C)C4)s3)c2)ncc1C (stereo not shown) [Example 100A-13], the IC50 [1] was < 100 nM.
With COC(=O)C1CC(O)(c2ncc(-c3cc(C)cc(Nc4nccc(C(F)(F)F)n4)c3)s2)CCN1 (stereo not shown) [46-2] the IC50 (rhSYK Activity, Table 46) was < 100 nM.
With Cc1cc(Nc2nccc(OCCO)n2)cc(-c2cnc(C3(O)CCC3)s2)c1 [Example 108A-34] the IC50 (rhSYK Activity, Table 108A) was < 100 nM.
Cc1cc(Nc2nccc(C(F)(F)F)n2)cc(-c2cnc(C3(O)CCCN(C(=O)Cc4ccccn4)CC3)s2)c1 (stereo not shown) [Example 54D-82] was tested, and the IC50 (rhSYK Activity, Table 54D) was < 100 nM.
For Cc1cc(Nc2ncc(C3CC3)cn2)cc(-c2cnc(C(C)(O)C(F)(F)F)s2)c1 (stereo not shown) [Example 100B-4], the IC50 [1] was 1000 to 10000 nM.
With Cc1cc(Nc2nccc(C(C)(C)C)n2)cc(-c2cnc(C(C)(C)S(N)(=O)=O)s2)c1 [Example 70-1] the IC50 (rhSYK Activity, Table 70) was < 100 nM.
Cc1cc(Nc2nccc(C(F)(F)F)n2)cc(-c2cnc(C3(O)CC4(CC4)C(O)C4(CC4)C3)s2)c1 (stereo not shown) [Example 143(B), 9-[5-(3-methyl-5-{[4-(trifluoromethyl)pyrimidin-2-yl]amino}phenyl)-1,3-thiazol-2-yl]dispiro[2.1.2.3]decane-4,9-diol] was tested, and the IC50 [1] was < 100 nM.
Cc1cc(Nc2nccc(SCCO)n2)cc(-c2cnc(C3(O)CCC3)s2)c1 [Example 108A-44] was tested, and the IC50 (rhSYK Activity, Table 108A) was < 100 nM.
In the case of Cc1cc(Nc2nccc(C)n2)cc(-c2cnc(C3(O)CCC(C(=O)O)CC3O)s2)c1 (stereo not shown) [Example 113A-90], the IC50 (rhSYK Activity, Table 113A) is reported as < 100 nM.
Cc1cc(Nc2nccc(C(F)(F)F)n2)cc(-c2cnc(CNCC(C)(C)O)s2)c1 [Example 88A-33] was tested, and the IC50 [1] was < 100 nM.
For Cc1cc(Nc2nccc(C(F)(F)F)n2)cc(-c2cnc(C3(O)CCC(NC(=O)c4cccc(O)n4)CC3)s2)c1 (stereo not shown) [Example 54E-25], the IC50 (rhSYK Activity, Table 54E) was < 100 nM.
